The first data set is described as follows: in vitro. Particulars: human, hela cells.
One may read the viability as a read-out of living cells in per cent, often relative to untreated cells. In the case of `O=C(Nc1ccc(OC(=O)N2CCCCC2)cc1)N1CCCCC1` [CBK090060], the viability at 28.5 h, 10 µM is 88.6%.

Staying with this data set, now noted: human, hela cells, % viability.
For the molecule `COc1ccc(-c2nccnc2N[C@@H](CO)C(C)C)cc1` [CBK089040], the viability at 28.5 h, 10 µM came to 98.5%. On the same count and under the same terms, as for `CC(C)[C@H](CO)Nc1nccnc1-c1cccs1` [CBK089047], the figure is 99%; as for `OCC1CCCN1c1nccnc1-c1cccnc1` (stereo not shown) [CBK089049], 101%. On the same count and under the same terms, with `OCC1CCCN1c1nccnc1-c1cccc(O)c1` (stereo not shown) [CBK089052] the figure was 109%; with `OCc1ccc(-c2nccnc2N2CCCC2CO)cc1` (stereo not shown) [CBK089053], 96.3%. The same measure, in the same setting: as for `O=C1CCCN1CCCNc1nccnc1-c1cccnc1` [CBK089246], the figure is 110%; as for `Nc1cccc(-c2nccnc2NCc2cccnc2)c1` [CBK089310], 105%. On to `CC(C)(CNC(=O)CN1CCOCC1)NC(=O)OC(C)(C)C` [CBK089350], for which the viability at 28.5 h, 10 µM was 88.7%. Same read-out and setting: as for `CCC1CCCCN1C(=O)c1sc(C)nc1C` (stereo not shown) [CBK089359], the figure is 105%; as for `CCC1CCCCN1C(=O)c1cc(Br)c(Br)s1` (stereo not shown) [CBK089360], 92.5%. Same read-out and setting: with `O=C(Nc1ccccc1Cl)Nc1[nH]nc(O)c1Cc1c(Cl)cccc1Cl` [CBK089367] the figure was 113%; with `CC(C)Nc1nccnc1Sc1ccc(N)cc1` [CBK089485], 77.1%. Still for that read-out and setting: as for `CC(C)Nc1nccnc1Sc1ccccc1O` [CBK089492], the figure is 92.1%; as for `CC(C)Nc1nccnc1Sc1cccc2ccccc12` [CBK089493], 100%; as for `CC(C)Nc1cc(Sc2ccc(F)cc2)ncn1` [CBK089498], 94.2%. Regarding `c1ccc2c(Sc3nccnc3N3CCCC3)cccc2c1` [CBK089527], the viability at 28.5 h, 10 µM is 89.2%.

Take `FC(F)(F)c1ccc(Sc2cccc3ccccc23)nc1` [CBK089553]: the viability at 28.5 h, 10 µM came out at 93.7%. On the same count and under the same terms, as for `Nc1ccc(Sc2nc3ccccc3nc2C(F)(F)F)cc1` [CBK089560], the figure is 100%; as for `Cc1ccc(C(=O)N2CN(C(=O)CNC(C)(C)C)CC2(C)C)cc1` [CBK089575C], 88.6%. On the same count and under the same terms, as for `Cc1ccc(C(=O)N2CN(C(=O)CNCC(C)C)CC2(C)C)cc1` [CBK089576C], the figure is 96%.

Regarding `c1ccc2c(Sc3cncc(N4CCCC4)n3)cccc2c1` [CBK089594], the viability at 28.5 h, 10 µM is 88.2%.

With `CC(C)(C)c1ccc(-c2cnc3ncccc3c2O)cc1` [CBK089628], the viability at 28.5 h, 10 µM came out at 84.3%. On the same count and under the same terms, as for `CCNc1cc2ccccc2c(-c2ccc3c(c2)OCCCO3)n1` [CBK089641], the figure is 99.2%. Consider `CC(=O)c1cc2cnccc2[nH]c1=O` [CBK089771], for which the viability at 28.5 h, 10 µM came out at 86.5%. On the same count and under the same terms, with `CC(=O)Cc1nc2ccccc2nc1O` [CBK089805] the figure was 92.2%; with `NC(=O)c1ccnc(Cl)c1` [CBK089827], 96%; with `O=C(Nc1cccnc1)c1ccnc(Cl)c1` [CBK089829], 100%. Same read-out and setting: with `COc1ccc2[nH]c3c(c2c1)CCN[C@]31CCN(CCOc2ccc(F)cc2)C1` [CBK089876T] the figure was 73.6%; with `COC(=O)c1sc2cc(C(F)(F)F)cnc2c1-c1cccnc1` [CBK089885], 112%. The same measure, in the same setting: as for `COC(=O)c1sc2cc(C(F)(F)F)cnc2c1-c1ccccn1` [CBK089888], the figure is 93.2%; as for `O=C(O)c1sc2cc(C(F)(F)F)cnc2c1-c1cccs1` [CBK089890], 114%. As to `Oc1c2c(nn1Cc1ccccc1)CCCC2` [CBK089898], the viability at 28.5 h, 10 µM turned out to be 87.4%. For `O=C(Oc1ccccc1O)c1cccc(Cl)c1` [CBK090130], the viability at 28.5 h, 10 µM was 97.1%. Take `Cc1cccc(C(=O)Oc2ccc(-n3ccnc3)cc2)c1` [CBK090137]: the viability at 28.5 h, 10 µM amounted to 101%. On the same count and under the same terms, with `O=C(O)c1ccc(OC(=O)C2CCCC2)cc1` [CBK090156] the figure was 103%. On the same count and under the same terms, as for `CN1C2CCCC1CC(OC(=O)c1cccc3nc[nH]c13)C2` (stereo not shown) [CBK090162], the figure is 99.3%; as for `COc1ccccc1OC(=O)c1ccccc1Cl` [CBK090164], 81.4%.

As to `CN1CCCC(OC(=O)C2CCCCC2)C1` (stereo not shown) [CBK090234], the viability at 28.5 h, 10 µM was found to be 104%. As to `COc1cc(Nc2cc(-c3ccc4c(c3)OCO4)ncn2)cc(OC)c1OC` [CBK090704], the viability at 28.5 h, 10 µM amounted to 101%. Consider `COc1cc(Nc2cc(-c3ccc(F)c(F)c3)ncn2)cc(OC)c1OC` [CBK090711], for which the viability at 28.5 h, 10 µM amounted to 94.7%. On the same count and under the same terms, as for `CC(=O)Nc1ccc(Nc2cc(-c3ccco3)ncn2)cc1` [CBK090719], the figure is 100%; as for `COc1cncc(-c2cc(Nc3cccc(OC)c3OC)ncn2)c1` [CBK090728], 97.8%. The same measure, in the same setting: with `COc1cccc(Nc2cc(-c3ccc(N4CCOCC4)cc3)ncn2)c1` [CBK090733] the figure was 68.7%; with `COc1cccc(Nc2cc(-c3ccco3)ncn2)c1` [CBK090740], 101%; with `COc1cncc(-c2cc(Nc3ccc(O)cc3)ncn2)c1` [CBK090752], 98%. Same read-out and setting: with `COc1ccc(Nc2cc(-c3ccc(CNC(=O)OC(C)(C)C)cc3)ncn2)c(OC)c1` [CBK090757] the figure was 90.8%; with `COc1ccc(Nc2cc(-c3cc(OC)c(OC)c(OC)c3)ncn2)c(OC)c1` [CBK090759], 95.4%; with `OCCc1ccc(Nc2cc(-c3cccnc3)ncn2)cc1` [CBK090768], 114%. Take `OCCc1ccc(Nc2cc(-c3ccsc3)ncn2)cc1` [CBK090769]: the viability at 28.5 h, 10 µM stood at 103%. In the case of `NC(=O)c1ccc(-c2cc(Nc3ccc(CCO)cc3)ncn2)cc1` [CBK090773], the viability at 28.5 h, 10 µM was found to be 102%.

`COc1cncc(-c2cc(Nc3cc(OC)c(OC)cc3C)ncn2)c1` [CBK090782]: the viability at 28.5 h, 10 µM turned out to be 84.9%.

Take `COc1cc(C)c(Nc2cc(-c3ccc(CC(C)C)cc3)ncn2)cc1OC` [CBK090785]: the viability at 28.5 h, 10 µM came to 91.2%. Take `COCCNc1cc(-c2ccccc2N(C)C)ncn1` [CBK090790]: the viability at 28.5 h, 10 µM came to 109%. Consider `COCCNc1cc(-c2cccc3oc4ccccc4c23)ncn1` [CBK090794], for which the viability at 28.5 h, 10 µM is 101%. Turning to `COCCNc1cc(-c2ccco2)ncn1` [CBK090796], the viability at 28.5 h, 10 µM worked out at 92.5%. As for `COc1cncc(-c2cc(Nc3ccc(OC)c(OC)c3)ncn2)c1` [CBK090824], the viability at 28.5 h, 10 µM stood at 92%. Same read-out and setting: with `CN(C)c1ccc(-c2cc(NCCc3ccncc3)ncn2)cc1` [CBK090849] the figure was 94.2%; with `CN(C)c1ccccc1-c1cc(Nc2ccc3cn[nH]c3c2)ncn1` [CBK090850], 55.7%. Same read-out and setting: with `c1coc(-c2cc(Nc3ccc4[nH]ccc4c3)ncn2)c1` [CBK090862] the figure was 95.5%. Still for that read-out and setting: with `CCNc1cc(-c2ccco2)ncn1` [CBK090879] the figure was 108%; with `CCCCCOc1ccc(Nc2cc(-c3ccc(N(C)C)cc3)ncn2)cc1` [CBK090889], 106%. In the case of `CC(C)(C)OC(=O)NCc1ccc(-c2cc(NC3CCCCC3)ncn2)cc1` [CBK090898], the viability at 28.5 h, 10 µM worked out at 98.5%. On the same count and under the same terms, as for `c1coc(-c2cc(NC3CCCCC3)ncn2)c1` [CBK090901], the figure is 91.2%.

Regarding `COc1cncc(-c2cc(NC3CCCCC3)ncn2)c1` [CBK090903], the viability at 28.5 h, 10 µM turned out to be 96.5%. Still for that read-out and setting: as for `COc1ccc(-c2cc(NC3CCCCC3)ncn2)cc1` [CBK090904], the figure is 96.8%; as for `COc1ccc(-c2cc(Nc3ccccc3)ncn2)cc1` [CBK090911], 93.9%; as for `Fc1ccc(-c2cc(Nc3ccccc3)ncn2)cc1F` [CBK090913], 105%. On the same count and under the same terms, with `CN1CCN(c2ccc(-c3cc(Nc4cccc(OCc5ccccc5)c4)ncn3)cn2)CC1` [CBK090918] the figure was 113%; with `c1ccc2cc(-c3cc(Nc4ccc(N5CCOCC5)cc4)ncn3)ccc2c1` [CBK090929], 94.2%; with `COc1ccccc1-c1cc(Nc2ccc(N3CCOCC3)cc2)ncn1` [CBK090933], 83.7%.

In the case of `FC(F)(F)Oc1ccc(-c2cc(Nc3ccc(N4CCOCC4)cc3)ncn2)cc1` [CBK090934], the viability at 28.5 h, 10 µM was determined as 88.9%. The same measure, in the same setting: as for `CN(C)c1ccc(Nc2cc(-c3ccc(OCc4ccccc4)cc3)ncn2)cc1` [CBK090941], the figure is 113%; as for `CC(C)(C)OC(=O)NCCc1ccc(Nc2cc(-c3ccc4c(c3)OCO4)ncn2)cc1` [CBK090957], 92.5%. For the molecule `CC(C)(C)OC(=O)NCCc1ccc(Nc2cc(-c3ccsc3)ncn2)cc1` [CBK090958], the viability at 28.5 h, 10 µM stood at 115%. On the same count and under the same terms, as for `CC(C)(C)OC(=O)NCCc1ccc(Nc2cc(-c3cc4ccccc4s3)ncn2)cc1` [CBK090959], the figure is 94.3%; as for `COc1cncc(-c2cc(N3CCC(N4CCCCC4)CC3)ncn2)c1` [CBK090964], 90.3%. As for `Cc1ccc(S(=O)(=O)Nc2ccc(Nc3cc(-c4cc(C(F)(F)F)cc(C(F)(F)F)c4)ncn3)cc2)cc1` [CBK090968], the viability at 28.5 h, 10 µM was found to be 99.6%. Still for that read-out and setting: as for `Cc1ccc(S(=O)(=O)Nc2ccc(Nc3cc(-c4cc5ccccc5o4)ncn3)cc2)cc1` [CBK090976], the figure is 96.8%; as for `CCN(CCO)c1ccc(Nc2cc(-c3cc(C(F)(F)F)cc(C(F)(F)F)c3)ncn2)cc1` [CBK090994], 106%; as for `CCN(CCO)c1ccc(Nc2cc(-c3cc4ccccc4o3)ncn2)cc1` [CBK090999], 94.8%.

As for `COc1ccccc1-c1cc(Nc2cccc(N(C)C)c2)ncn1` [CBK091011], the viability at 28.5 h, 10 µM is 95.5%. Same read-out and setting: as for `CN(C)c1cccc(Nc2cc(-c3cccc([N+](=O)[O-])c3)ncn2)c1` [CBK091012], the figure is 102%; as for `CN(C)c1cccc(Nc2cc(-c3ccco3)ncn2)c1` [CBK091014], 87.5%.

Still in this data set, the particulars now being: human, hela cells, % viability, bulk resorufin, single well.
With `CCOC(=O)N1CCC2(CC1)Oc1ccc(-c3cc(OC)c(OC)c(OC)c3)cc1O2` [CBK090282], the viability at 28.5 h, 10 µM was 90.9%.

Source of the values: PMC12040169 (PLOS Biology, 2025).
